Eight compounds from ChEMBL document CHEMBL1201862, “PubChem BioAssay data set” (2004) can be followed below.

Some test systems named below: HT-29; NCI/ADR-RES; SNB-19; MDA-MB-435; NCI-H522; ACHN; MDA-MB-231; OVCAR-8; SK-OV-3; HOP-62; MCF7; T47D; SNB-75; A549; CAKI-1; SF-295; SK-MEL-2; SK-MEL-28; NCI-H23; SF-539.
What all share (test): inhibition of tumour cell growth, NCI panel, 48 h

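Following 48 hours of exposure in 96-well plates, responses at five concentrations were used to interpolate endpoints linearly. GI50 = concentration required for 50% inhibition of growth.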 Calls of active or inactive are those of the source. No stated cut-off is given here; in the data, active = GI50 up to about 1.1 µM and inactive = higher.

As to `C[N+]12C=CC=C1C(N1CCCC1)c1sc(-c3ccc(Cl)cc3)cc12` (configuration not stated), the GI50 in the assay with HT-29 was 17.4 µM (inactive); with NCI/ADR-RES, 36.9 µM (inactive); in the assay with SNB-19, 13.6 µM (inactive); in the assay on MDA-MB-435 it was 15.7 µM (inactive); with NCI-H522, 10.4 µM (inactive); in the assay on ACHN, 46 µM (inactive). Besides, the GI50 in the assay with MDA-MB-231 is 18.3 µM (inactive); in the assay on OVCAR-8, 16.9 µM (inactive); with SK-OV-3 it was 18.7 µM (inactive); with HOP-62, 17.5 µM (inactive); in the assay on MCF7, 14.7 µM (inactive); in the assay on T47D, 10.6 µM (inactive). Besides, the GI50 with SNB-75 is 11.3 µM (inactive); with A549, 28.6 µM (inactive); in the assay with CAKI-1, > 100 µM (inactive); in the assay with SF-295, 20.3 µM (inactive); with SK-MEL-2, 8.39 µM (inactive); with SK-MEL-28, 17.2 µM (inactive).
Turning to `CC[C@@]1(O)CC(OC2CC(N3CCOCC3)C(O)C(C)O2)c2c(O)c3c(c(O)c2[C@H]1O)C(=O)c1cccc(O)c1C3=O` (some centres not stated), the GI50 with HT-29 was 0.0902 µM (active); in the assay on NCI/ADR-RES, 0.145 µM (active); in the assay with NCI-H23, 0.175 µM (active); in the assay on SNB-19 it was 0.127 µM (active); in the assay on MDA-MB-435, 0.304 µM (active); with NCI-H522 it was 0.166 µM (active). Further, the GI50 in the assay with ACHN was 0.0359 µM (active); with MDA-MB-231, 0.348 µM (active); with OVCAR-8, 0.0904 µM (active); with SK-OV-3, 0.126 µM (active); in the assay on HOP-62 it was 0.0679 µM (active); in the assay on MCF7, 0.0293 µM (active). The GI50 with T47D was 0.179 µM (active); with SF-539 it was 0.103 µM (active); in the assay on SNB-75, 0.139 µM (active); with A549, 0.0267 µM (active); in the assay on SF-295, 0.0575 µM (active); in the assay with SK-MEL-2, 0.312 µM (active). In addition, in the assay on SK-MEL-28, the GI50 is 0.378 µM (active).
For the compound `COC(=O)c1c2c(cc3c1CC1(Cc4cc5c(c(C(C)=O)c4C1)CCCC5)C3)CCCC2` (configuration not stated), the GI50 is 48.8 µM (inactive) in the assay on HT-29; > 100 µM (inactive) with NCI/ADR-RES; > 100 µM (inactive) with NCI-H23; 92.5 µM (inactive) in the assay on MDA-MB-435; > 100 µM (inactive) in the assay with NCI-H522; 44.1 µM (inactive) in the assay on ACHN. Moreover, the GI50 is > 100 µM (inactive) with MDA-MB-231; > 100 µM (inactive) with OVCAR-8; > 100 µM (inactive) in the assay with SK-OV-3; > 100 µM (inactive) with HOP-62; 85.1 µM (inactive) in the assay with MCF7; > 100 µM (inactive) in the assay on T47D. Moreover, the GI50 is > 100 µM (inactive) in the assay on SF-539, > 100 µM (inactive) in the assay on A549, > 100 µM (inactive) in the assay with SF-295 and 21.4 µM (inactive) with SK-MEL-2.
With `CC(=O)OCC12C(=O)C[C@@H](C)C3(CC(c4ccoc4)OC3=O)C1CCC(OC(C)=O)C21CO1` (some centres not stated), the GI50 in the assay with HT-29, in the assay with NCI/ADR-RES, in the assay with NCI-H23, in the assay on SNB-19, in the assay with MDA-MB-435 and in the assay on NCI-H522 was > 100 µM (inactive) in each case. Besides, the GI50 in the assay on ACHN, in the assay with MDA-MB-231, in the assay with OVCAR-8, with HOP-62, with MCF7 and in the assay on T47D was > 100 µM (inactive) in each case. The GI50 in the assay with SF-539, in the assay on SNB-75, with A549, in the assay on CAKI-1, with SF-295 and with SK-MEL-2 was > 100 µM (inactive) in each case. For the same compound, the GI50 in the assay with SK-MEL-28 was > 100 µM (inactive).
Turning to `C[N+]1(C(CO)Cc2c[nH]c3ccccc23)Cc2ccccc2C1` (configuration not stated), the GI50 is 92.3 µM (inactive) in the assay on HT-29; > 100 µM (inactive) with NCI/ADR-RES; > 100 µM (inactive) in the assay with NCI-H23; > 100 µM (inactive) in the assay with SNB-19; > 100 µM (inactive) in the assay with MDA-MB-435; 49.3 µM (inactive) in the assay with NCI-H522. For the same compound, the GI50 in the assay on ACHN, with MDA-MB-231, in the assay on OVCAR-8, with SK-OV-3, in the assay with HOP-62 and with MCF7 was > 100 µM (inactive) throughout. Moreover, the GI50 with T47D was > 100 µM (inactive); in the assay on SNB-75, > 100 µM (inactive); in the assay on A549, 59.4 µM (inactive); in the assay with CAKI-1, > 100 µM (inactive); in the assay on SF-295 it was > 100 µM (inactive); in the assay with SK-MEL-2, > 100 µM (inactive). Besides, the GI50 in the assay on SK-MEL-28 is 31.7 µM (inactive).
Consider `NS(=O)(=O)c1nnc(NC(=O)C23CC4CC(CC(C4)C2)C3)s1`, for which the GI50 with NCI/ADR-RES is > 100 µM (inactive); with NCI-H23 it was > 100 µM (inactive); with SNB-19, > 100 µM (inactive); in the assay with MDA-MB-435, > 100 µM (inactive); in the assay with NCI-H522, 68.2 µM (inactive); in the assay on ACHN, > 100 µM (inactive). The GI50 in the assay on MDA-MB-231 was > 100 µM (inactive); in the assay with OVCAR-8 it was > 100 µM (inactive); in the assay on SK-OV-3, > 100 µM (inactive); in the assay with HOP-62 it was > 100 µM (inactive); with MCF7 it was > 100 µM (inactive); with T47D, 90.4 µM (inactive). For the same compound, the GI50 in the assay with SF-539, in the assay with A549, with CAKI-1, in the assay with SF-295, in the assay with SK-MEL-2 and with SK-MEL-28 was > 100 µM (inactive) each time.
On to `O=C(N/N=C(COc1cccc(Cl)c1)\N=C\c1ccncc1)c1ccncc1`, for which the GI50 is > 100 µM (inactive) with HT-29; > 100 µM (inactive) with NCI/ADR-RES; > 100 µM (inactive) in the assay on NCI-H23; > 100 µM (inactive) in the assay with SNB-19; 75.3 µM (inactive) in the assay on MDA-MB-435; > 100 µM (inactive) with NCI-H522. Moreover, the GI50 in the assay on ACHN, in the assay on MDA-MB-231, in the assay with OVCAR-8, with SK-OV-3, with HOP-62 and in the assay on MCF7 was > 100 µM (inactive) each time. The GI50 in the assay on T47D, in the assay on SF-539, in the assay on A549, with CAKI-1, with SF-295 and with SK-MEL-2 was > 100 µM (inactive) in each case. Moreover, the GI50 in the assay with SK-MEL-28 was > 100 µM (inactive).
For the compound `COC1=C(OC)C(=O)C(Cc2c(-c3ccccc3)nc3sc(Cl)cn23)=C(C)C1=O`, the GI50 in the assay on HT-29 was 20.1 µM (inactive); in the assay on NCI/ADR-RES, 17.9 µM (inactive); in the assay with NCI-H23, 17.8 µM (inactive); in the assay on SNB-19, 18.2 µM (inactive); in the assay on MDA-MB-435, 16.5 µM (inactive); in the assay with NCI-H522, 13.6 µM (inactive). For the same compound, the GI50 in the assay on ACHN was 16 µM (inactive); in the assay with MDA-MB-231 it was 11 µM (inactive); in the assay with OVCAR-8, 15.2 µM (inactive); in the assay on SK-OV-3, 18.5 µM (inactive); in the assay with HOP-62, 19.5 µM (inactive); in the assay on MCF7, 20.3 µM (inactive). For the same compound, the GI50 in the assay with T47D is 23.4 µM (inactive); with SF-539, 17.1 µM (inactive); with A549 it was 21.7 µM (inactive); in the assay on CAKI-1, 21 µM (inactive); with SF-295, 17 µM (inactive); in the assay with SK-MEL-2, 15.6 µM (inactive). The GI50 in the assay with SK-MEL-28 was 13.8 µM (inactive).
